Tested on: diarrhea-predominant IBS subjects
Type: in vivo, human
Conditions: TEAE incidence, 2 mg, Safety Population
Protocol: The study was performed in approximately 150 study centers. Approximately 1600 eligible subjects were to be given cilansetron 2 mg TID. At Visit 1, pre-treatment assessments were conducted. […] Subjects were to return to the study site one month later for Visit 3 (Day 31) for their first interim assessment. […] All subjects who discontinued from the study were to have the same post-study assessments required at Visit 7 performed at their early termination visit. […]
Stool specimens were analyzed at every visit for occult blood. An independent GERB had been established to provide advice on GI AEs during the course of the study.
Adverse events were assessed at Baseline, at each clinic visit, and at the end of the study (Month 12 or the early termination visit). All AEs, which occurred during the study were followed up in accordance with good medical practice until resolved or judged no longer clinically significant, or if a condition was chronic, until fully characterized. Adverse events could occur in the specified follow-up period and, regardless of the interval since the last administration of the study medication, were treated in the same manner as an AE which occurred during the treatment with study medication. Each AE was evaluated for duration, severity, seriousness, and causal relationship to the investigational drug. The action taken and the outcome were also recorded.
Specifically, subjects who were lost to follow-up and had no post-Baseline contact with the site were excluded from the Safety population. The subjects who discontinued from the study due to lost to follow-up were identified based on the information collected on the study termination CRF page.
After the pretreatment assessment at Visit 1 (Days […] to −3), subjects were to return to the study site for a Baseline assessment and start the treatment at Visit 2 (Day 1).
For the by time-interval analyses of disposition, prevalence of AEs, and of markedly abnormal and predefined changes in laboratory values, vital signs, and ECGs, the following interval windows were used:
Adverse events that were already present prior to the first dose of cilansetron study medication but increased in severity afterwards were considered as treatment-emergent.
The 5% cutoff point was based on the incidence within higher level terms.
Subjects were counted at most once for each primary system organ class and preferred term. Serious AEs that resolved prior to receiving study medication or occurred more than 30 days after the last dose of study medication were not included in the incidence tables. A listing of all SAEs is presented; SAEs with onset prior to receiving study medication or more than 30 days after discontinuation of study medication were flagged. The listing presents lower level term and preferred term of the SAE, severity, action taken, outcome, and relationship of the SAE, start and stop date of the SAE, study day of onset of the SAE, age, race, and sex.

SMILES: Cc1nccn1C[C@H]1CCc2c(c3cccc4c3n2CCC4)C1=O [cilansetron, (R)-(−)-4,5,6,8,9,10-hexahydro-10-[(2-methyl-1H-imidazol-1-yl)methyl]-11H-pyrido-[3,2,1-jk]-carbazol-11-one]
- Limb Injuries NEC (Incl Traumatic Amputation) (HLT): 4 (<1%) n (%)
- Lower Limb Fractures and Dislocations (HLT): 4 (<1%) n (%)
- Menopausal Effects NEC* (HLT): 2 (<1%) n (%)
- Menopausal Effects on the Genitourinary Tract* (HLT): 1 (<1%) n (%)
- Menstruation and Uterine Bleeding NEC* (HLT): 3 (<1%) n (%)
- Menstruation with Decreased Bleeding* (HLT): 4 (<1%) n (%)
- Menstruation with Increased Bleeding* (HLT): 2 (<1%) n (%)
- Mental Disorders NEC (HLT): 1 (<1%) n (%)
- Metabolic Bone Disorders (HLT): 4 (<1%) n (%)
- Mood Alterations with Depressive Symptoms (HLT): 1 (<1%) n (%)
- Muscle Pains (HLT): 12 (<1%) n (%)
- Muscle Related Signs and Symptoms NEC (HLT): 8 (<1%) n (%)
- Muscle, Tendon and Ligament Injuries (HLT): 14 (<1%) n (%)
- Myocardial Disorders NEC (HLT): 2 (<1%) n (%)
- Nasal Congestion and Inflammations (HLT): 10 (<1%) n (%)
- Nasal Disorders NEC (HLT): 5 (<1%) n (%)
- Non-Site Specific Injuries NEC (HLT): 10 (<1%) n (%)
- Non-Site Specific Procedural Complications (HLT): 5 (<1%) n (%)
- Oedema NEC (HLT): 1 (<1%) n (%)
- Osteoarthropathies (HLT): 4 (<1%) n (%)
- Ovarian and Fallopian Tube Cysts and Neoplasms* (HLT): 2 (<1%) n (%)
- Pain and Discomfort NEC (HLT): 20 (1%) n (%)
- Panic Disorders (HLT): 4 (<1%) n (%)
- Papulosquamous Conditions (HLT): 6 (<1%) n (%)
- Paranasal Sinus Disorders (Excl Infections and Neoplasms) (HLT): 6 (<1%) n (%)
- Parasomnias (HLT): 2 (<1%) n (%)
- Pelvic Prolapse* (HLT): 2 (<1%) n (%)
- Photosensitivity Conditions (HLT): 1 (<1%) n (%)
- Potassium Imbalance (HLT): 4 (<1%) n (%)
- Prostatic signs, Symptoms and Disorders NEC* (HLT): 4 (<1%) n (%)
- Pruritus NEC (HLT): 14 (<1%) n (%)
- Purine Metabolism Disorders NEC (HLT): 1 (<1%) n (%)
- Rashes, Eruptions and Exanthems NEC (HLT): 13 (<1%) n (%)
- Rate and Rhythm Disorders NEC (HLT): 8 (<1%) n (%)
- Renal Lithiasis (HLT): 2 (<1%) n (%)
- Renal Neoplasms (HLT): 1 (<1%) n (%)
- Reproductive Tract Disorders NEC (Excl Neoplasms) (HLT): 1 (<1%) n (%)
- Reproductive Tract Signs and Symptoms NEC (HLT): 2 (<1%) n (%)
- Respiratory Tract Disorders NEC (HLT): 1 (<1%) n (%)
- Rheumatoid Arthropathies (HLT): 2 (<1%) n (%)
- Rosaceas (HLT): 1 (<1%) n (%)
- Scalar Conditions (HLT): 1 (<1%) n (%)
- Sebaceous Gland Disorders (HLT): 1 (<1%) n (%)
- Sexual Desire Disorders (HLT): 2 (<1%) n (%)
- Site Specific Injuries NEC (HLT): 17 (1%) n (%)
- Skin Injuries and Mechanical Dermatoses (HLT): 3 (<1%) n (%)
- Skin Neoplasms Benign (HLT): 1 (<1%) n (%)
- Skin Preneoplastic Conditions NEC (HLT): 1 (<1%) n (%)
- Skin and Subcutaneous Tissue Ulcerations (HLT): 1 (<1%) n (%)
- Sleep Disorders NEC (HLT): 2 (<1%) n (%)
- Sodium Imbalance (HLT): 1 (<1%) n (%)
- Soft Tissue Disorders NEC (HLT): 6 (<1%) n (%)
- Spondyloarthropathies (HLT): 2 (<1%) n (%)
- Structural and Obstructive Urethral Disorders (Excl Congenital) (HLT): 1 (<1%) n (%)
- Supraventricular Arrhythmias (HLT): 18 (1%) n (%)
- Tendon Disorders (HLT): 3 (<1%) n (%)
- Thermal Burns (HLT): 1 (<1%) n (%)
- Thoracic Cage Fractures and Dislocations (HLT): 2 (<1%) n (%)
- Total Fluid Volume Increased (HLT): 1 (<1%) n (%)
- Upper Limb Fractures and Dislocations (HLT): 7 (<1%) n (%)
- Upper Respiratory Tract Signs and Symptoms (HLT): 36 (2%) n (%)
- Urinary Abnormalities (HLT): 8 (<1%) n (%)
- Urinary Tract Lithiasis (Excl Renal) (HLT): 2 (<1%) n (%)
- Urinary Tract Signs and Symptoms NEC (HLT): 8 (<1%) n (%)
- Urticarias (HLT): 4 (<1%) n (%)
- Ventricular Arrhythmias and Cardiac Arrest (HLT): 3 (<1%) n (%)
- Water Soluble Vitamin Deficiencies (HLT): 2 (<1%) n (%)
- Connective Tissue Disorders (HLT (skin SOC)): 1 (<1%) n (%)
- Abrasion NOS (PT): 1 (<1%) n (%)
- Acne Aggravated (PT): 1 (<1%) n (%)
- Acne NOS (PT): 1 (<1%) n (%)
- Acute Myocardial Infarction (PT): 2 (<1%) n (%)
- Affect Lability (PT): 1 (<1%) n (%)
- Alopecia (PT): 1 (<1%) n (%)
- Alopecia Areata (PT): 1 (<1%) n (%)
- Amenorrhoea NOS* (PT): 2 (<1%) n (%)
- Anal Injury (PT): 1 (<1%) n (%)
- Angina Pectoris (PT): 2 (<1%) n (%)
- Animal Bite (PT): 2 (<1%) n (%)
- Ankle Fracture (PT): 1 (<1%) n (%)
- Anorexia (PT): 11 (<1%) n (%)
- Anxiety (PT): 12 (<1%) n (%)
- Anxiety Aggravated (PT): 1 (<1%) n (%)
- Anxiety Disorder (PT): 1 (<1%) n (%)
- Appetite Decreased NOS (PT): 2 (<1%) n (%)
- Appetite Increased NOS (PT): 2 (<1%) n (%)
- Arthralgia (PT): 29 (2%) n (%)
- Arthralgia Aggravated (PT): 1 (<1%) n (%)
- Arthritis NOS (PT): 1 (<1%) n (%)
- Arthropod Sting (PT): 2 (<1%) n (%)
- Asthenia (PT): 2 (<1%) n (%)
- Asthma Aggravated (PT): 2 (<1%) n (%)
- Asthma NOS (PT): 6 (<1%) n (%)
- Atrial Fibrillation (PT): 2 (<1%) n (%)
- Atrial Fibrillation Aggravated (PT): 1 (<1%) n (%)
- Atrial Flutter (PT): 1 (<1%) n (%)
- Atrial Hypertrophy (PT): 1 (<1%) n (%)
- Atrioventricular Block NOS (PT): 1 (<1%) n (%)
- Axillary Pain (PT): 1 (<1%) n (%)
- Back Injury NOS (PT): 3 (<1%) n (%)
- Back Pain Aggravated (PT): 2 (<1%) n (%)
- Benign Prostatic Hyperplasia* (PT): 3 (<1%) n (%)
- Bloody Discharge (PT): 1 (<1%) n (%)
- Bradycardia NOS (PT): 2 (<1%) n (%)
- Breast Cyst* (PT): 2 (<1%) n (%)
- Breast Engorgement* (PT): 1 (<1%) n (%)
- Breast Pain* (PT): 2 (<1%) n (%)
- Breast Tenderness* (PT): 1 (<1%) n (%)
- Bundle Branch Block Right (PT): 3 (<1%) n (%)
- Bursitis (PT): 1 (<1%) n (%)
- Calculus Renal NOS (PT): 2 (<1%) n (%)
- Calculus Ureteric (PT): 2 (<1%) n (%)
- Catarrh (PT): 2 (<1%) n (%)
